Reference: patent US20260085077A1, “HETEROCYCLIC DERIVATIVES AS JANUS KINASE INHIBITORS” (CHIESI FARMACEUTICI S.P.A., priority 2022, published 2026)

What follows are compounds tested on IL-13 induced pSTAT6 in BEAS-2B human cell line (assay: Inhibition of IL-13 induced pSTAT6 in BEAS). Settings: IL-13 induced pSTAT6, BEAS-2B cells, ELISA.
Assay type: cell-based
Description: BEAS-2B human cell line was seeded (100.000 cells/well) and incubated for 48 h at 37° C., 5% CO2, 95% humidity. Compounds were added and incubated 30 min followed by IL-13 as trigger. After 30 min incubation, cells were lysed and pSTAT6 determined by Fastscan phospho-stat6 (Tyr641) sandwich ELISA kit (cell signaling). Inhibitors were tested at 11 consecutive […] dilutions starting from 10 μM (10 μM-40 pM) in duplicate. Calculation of IC50 data, curves and QC analysis were made using Excel tools and GraphPadPrism software. QC criteria parameters: Z′≥0.35, Hill Slope range 0.5 to 5, S:B>2.

`COc1cc2c(cc1-n1nc(C(=O)NC[C@H]3CN(C)CCO3)c3cnc(-c4cnn5cccnc45)cc31)SCC(=O)N2` [Example 22, (S)-1-(6-methoxy-3-oxo-3,4-dihydro-2H-benzo[b][1,4]thiazin-7-yl)-N-((4-methylmorpholin-2-yl)methyl)-6-(pyrazolo[1,5-a]pyrimidin-3-yl)-1H-pyrazolo[4,3-c]pyridine-3-carboxamide] and `COc1cc2c(cc1-n1nc(C(=O)NC[C@@H]3CN(C)CCO3)c3cnc(-c4cnn5cccnc45)cc31)OCCN2` [Example 45, (R)-1-(6-methoxy-3,4-dihydro-2H-benzo[b][1,4]oxazin-7-yl)-N-((4-methylmorpholin-2-yl)methyl)-6-(pyrazolo[1,5-a]pyrimidin-3-yl)-1H-pyrazolo[4,3-c]pyridine-3-carboxamide] fall in the same range of IC50: 5.01 to 50.1 nM for the first, 5.01 to 50.1 nM for the second.

First: COc1cc2c(cc1-n1nc(C(=O)NCCCN(C)C)c3cnc(-c4cnn5cccnc45)cc31)SCC(=O)N2 [Example 23, N-(3-(dimethylamino)propyl)-1-(6-methoxy-3-oxo-3,4-dihydro-2H-benzo[b][1,4]thiazin-7-yl)-6-(pyrazolo[1,5-a]pyrimidin-3-yl)-1H-pyrazolo[4,3-c]pyridine-3-carboxamide]
Second: COc1cc2c(cc1-n1nc(C(=O)NCCCN(C)C)c3cnc(-c4cnn5cccnc45)cc31)CCC(=O)N2 [Example 24, N-(3-(dimethylamino)propyl)-1-(7-methoxy-2-oxo-1,2,3,4-tetrahydroquinolin-6-yl)-6-(pyrazolo[1,5-a]pyrimidin-3-yl)-1H-pyrazolo[4,3-c]pyridine-3-carboxamide]
The IC50 of the first is lower: 5.01 to 50.1 nM for the first, 50.1 to 501 nM for the second. The first is the more potent here.

`COc1cc2c(cc1-n1nc(C(=O)NCCCN(C)C)c3cnc(-c4cnn5cccnc45)cc31)CCCN2` [Example 25, N-(3-(dimethylamino)propyl)-1-(7-methoxy-1,2,3,4-tetrahydroquinolin-6-yl)-6-(pyrazolo[1,5-a]pyrimidin-3-yl)-1H-pyrazolo[4,3-c]pyridine-3-carboxamide] and `COc1cc2c(cc1-n1nc(C(=O)NCCCN(C)C)c3cnc(-c4cnn5cccnc45)cc31)OCCN2` [Example 43, N-(3-(dimethylamino)propyl)-1-(6-methoxy-3,4-dihydro-2H-benzo[b][1,4]oxazin-7-yl)-6-(pyrazolo[1,5-a]pyrimidin-3-yl)-1H-pyrazolo[4,3-c]pyridine-3-carboxamide] fall in the same range of IC50: 5.01 to 50.1 nM for the first, 5.01 to 50.1 nM for the second.

`CNc1nn(-c2cc3c(cc2OC)NC(=O)CC3)c2cc(-c3cnn4cccnc34)ncc12` [Example 26, 7-methoxy-6-(3-(methylamino)-6-(pyrazolo[1,5-a]pyrimidin-3-yl)-1H-pyrazolo[4,3-c]pyridin-1-yl)-3,4-dihydroquinolin-2(1H)-one] and `COc1cc2c(cc1-n1nc(NC(=O)OCCN(C)C)c3cnc(-c4cnn5cccnc45)cc31)CCC(=O)N2` [Example 27, 2-(dimethylamino)ethyl (1-(7-methoxy-2-oxo-1,2,3,4-tetrahydroquinolin-6-yl)-6-(pyrazolo[1,5-a]pyrimidin-3-yl)-1H-pyrazolo[4,3-c]pyridin-3-yl)carbamate] fall in the same range of IC50: 5.01 to 50.1 nM for the first, 5.01 to 50.1 nM for the second.

`COc1cc2c(cc1-n1nc(NC(=O)OCCN(C)C)c3cnc(-c4cnn5cccnc45)cc31)SCCN2` [Example 28, 2-(dimethylamino)ethyl (1-(6-methoxy-3,4-dihydro-2H-benzo[b][1,4]thiazin-7-yl)-6-(pyrazolo[1,5-a]pyrimidin-3-yl)-1H-pyrazolo[4,3-c]pyridin-3-yl)carbamate] and `COc1cc2c(cc1-n1nc(NC(=O)N(C)C)c3cnc(-c4cnn5cccnc45)cc31)SCCN2` [Example 36, 3-(1-(6-methoxy-3,4-dihydro-2H-benzo[b][1,4]thiazin-7-yl)-6-(pyrazolo[1,5-a]pyrimidin-3-yl)-1H-pyrazolo[4,3-c]pyridin-3-yl)-1,1-dimethylurea] cannot be ordered by IC50: under 5.01 nM for the first, under 5.01 nM for the second.

First: COc1cc2c(cc1-n1nc(NC(=O)OCCN3CCOCC3)c3cnc(-c4cnn5cccnc45)cc31)SCCN2 [Example 29, 2-morpholinoethyl (1-(6-methoxy-3,4-dihydro-2H-benzo[b][1,4]thiazin-7-yl)-6-(pyrazolo[1,5-a]pyrimidin-3-yl)-1H-pyrazolo[4,3-c]pyridin-3-yl)carbamate]
Second: COc1cc2c(cc1-n1nc(NC(=O)OCCN3CCCCC3)c3cnc(-c4cnn5cccnc45)cc31)SCCN2 [Example 31, 2-(piperidin-1-yl)ethyl (1-(6-methoxy-3,4-dihydro-2H-benzo[b][1,4]thiazin-7-yl)-6-(pyrazolo[1,5-a]pyrimidin-3-yl)-1H-pyrazolo[4,3-c]pyridin-3-yl)carbamate]
The IC50 of the first is lower: under 5.01 nM for the first, 5.01 to 50.1 nM for the second.

`COc1cc2c(cc1-n1nc(NC(=O)OCCCN3CCN(C)CC3)c3cnc(-c4cnn5cccnc45)cc31)SCCN2` [Example 30, 3-(4-methylpiperazin-1-yl)propyl (1-(6-methoxy-3,4-dihydro-2H-benzo[b][1,4]thiazin-7-yl)-6-(pyrazolo[1,5-a]pyrimidin-3-yl)-1H-pyrazolo[4,3-c]pyridin-3-yl)carbamate] and `COc1cc2c(cc1-n1nc(NC(=O)OCCN3CC[C@@H](OC)C3)c3cnc(-c4cnn5cccnc45)cc31)SCCN2` [Example 35, (R)-2-(3-methoxypyrrolidin-1-yl)ethyl (1-(6-methoxy-3,4-dihydro-2H-benzo[b][1,4]thiazin-7-yl)-6-(pyrazolo[1,5-a]pyrimidin-3-yl)-1H-pyrazolo[4,3-c]pyridin-3-yl)carbamate] fall in the same range of IC50: 5.01 to 50.1 nM for the first, 5.01 to 50.1 nM for the second.

`COc1cc2c(cc1-n1nc(NC(=O)O[C@@H]3CCN(C)C3)c3cnc(-c4cnn5cccnc45)cc31)SCCN2` [Example 32, (R)-1-methylpyrrolidin-3-yl (1-(6-methoxy-3,4-dihydro-2H-benzo[b][1,4]thiazin-7-yl)-6-(pyrazolo[1,5-a]pyrimidin-3-yl)-1H-pyrazolo[4,3-c]pyridin-3-yl)carbamate] and `COc1cc2c(cc1-n1nc(NC(=O)O[C@H]3CCN(C)C3)c3cnc(-c4cnn5cccnc45)cc31)SCCN2` [Example 33, (S)-1-methylpyrrolidin-3-yl (1-(6-methoxy-3,4-dihydro-2H-benzo[b][1,4]thiazin-7-yl)-6-(pyrazolo[1,5-a]pyrimidin-3-yl)-1H-pyrazolo[4,3-c]pyridin-3-yl)carbamate] fall in the same range of IC50: 5.01 to 50.1 nM for the first, 5.01 to 50.1 nM for the second.

`COc1cc2c(cc1-n1nc(NC(=O)OCC3(N(C)C)CCOCC3)c3cnc(-c4cnn5cccnc45)cc31)SCCN2` [Example 34, (4-(dimethylamino)tetrahydro-2H-pyran-4-yl)methyl (1-(6-methoxy-3,4-dihydro-2H-benzo[b][1,4]thiazin-7-yl)-6-(pyrazolo[1,5-a]pyrimidin-3-yl)-1H-pyrazolo[4,3-c]pyridin-3-yl)carbamate] and `COc1cc2c(cc1-n1nc(NCCN(C)C)c3cnc(-c4cnn5cccnc45)cc31)SCC(=O)N2` [Example 38, 7-(3-((2-(dimethylamino)ethyl)amino)-6-(pyrazolo[1,5-a]pyrimidin-3-yl)-1H-pyrazolo[4,3-c]pyridin-1-yl)-6-methoxy-2H-benzo[b][1,4]thiazin-3(4H)-one] fall in the same range of IC50: 5.01 to 50.1 nM for the first, 5.01 to 50.1 nM for the second.

`COc1cc2c(cc1-n1nc(NCCN3CCN(C)CC3)c3cnc(-c4cnn5cccnc45)cc31)SCC(=O)N2` [Example 37] and `COc1cc2sncc2cc1-n1nc(NCCN2CCOCC2)c2cnc(-c3cnn4cccnc34)cc21` [Example 39, 1-(6-methoxybenzo[d]isothiazol-5-yl)-N-(2-morpholinoethyl)-6-(pyrazolo[1,5-a]pyrimidin-3-yl)-1H-pyrazolo[4,3-c]pyridin-3-amine] fall in the same range of IC50: 5.01 to 50.1 nM for the first, 5.01 to 50.1 nM for the second.

`COc1cc2c(cc1-n1nc(C)c3cnc(-c4cnn5cccnc45)cc31)OCCN2` [Example 40, 6-methoxy-7-(3-methyl-6-(pyrazolo[1,5-a]pyrimidin-3-yl)-1H-pyrazolo[4,3-c]pyridin-1-yl)-3,4-dihydro-2H-benzo[b][1,4]oxazine] and `COc1cc2c(cc1-n1nc(C)c3cnc(-c4cnn5cccnc45)cc31)CCN2` [Example 41, 1-(6-methoxyindolin-5-yl)-3-methyl-6-(pyrazolo[1,5-a]pyrimidin-3-yl)-1H-pyrazolo[4,3-c]pyridine] fall in the same range of IC50: 5.01 to 50.1 nM for the first, 5.01 to 50.1 nM for the second.

First: COc1cc2c(cc1-n1nc(C)c3cnc(-c4cnn5cccnc45)cc31)CCCN2 [Example 42, 7-methoxy-6-(3-methyl-6-(pyrazolo[1,5-a]pyrimidin-3-yl)-1H-pyrazolo[4,3-c]pyridin-1-yl)-1,2,3,4-tetrahydroquinoline]
Second: COc1cc2c(cc1-n1nc(C(=O)NC3CN(C)C3)c3cnc(-c4cnn5cccnc45)cc31)OCCN2 [Example 44, 1-(6-methoxy-3,4-dihydro-2H-benzo[b][1,4]oxazin-7-yl)-N-(1-methylazetidin-3-yl)-6-(pyrazolo[1,5-a]pyrimidin-3-yl)-1H-pyrazolo[4,3-c]pyridine-3-carboxamide]
The IC50 of the first is lower: under 5.01 nM for the first, 5.01 to 50.1 nM for the second.

Compared with `COc1cc2c(cc1-n1nc(C(=O)NCCN3CCC(OC)CC3)c3cnc(-c4cnn5cccnc45)cc31)OCCN2` [Example 46, 1-(6-methoxy-3,4-dihydro-2H-benzo[b][1,4]oxazin-7-yl)-N-(2-(4-methoxypiperidin-1-yl)ethyl)-6-(pyrazolo[1,5-a]pyrimidin-3-yl)-1H-pyrazolo[4,3-c]pyridine-3-carboxamide], `COCC1CCN(CCNC(=O)c2nn(-c3cc4c(cc3OC)NCCO4)c3cc(-c4cnn5cccnc45)ncc23)CC1` [Example 47, 1-(6-methoxy-3,4-dihydro-2H-benzo[b][1,4]oxazin-7-yl)-N-(2-(4-(methoxymethyl)piperidin-1-yl)ethyl)-6-(pyrazolo[1,5-a]pyrimidin-3-yl)-1H-pyrazolo[4,3-c]pyridine-3-carboxamide] is higher in IC50: under 5.01 nM for the first, 5.01 to 50.1 nM for the second. The first is the more potent here.
